This note sets out measurements from publication PMC3942289, “Characterization of Ten Heterotetrameric NDP-Dependent Acyl-CoA Synthetases of the Hyperthermophilic Archaeon Pyrococcus furiosus” (Archaea, 2014).

One test concerns the target T1, ACS5-G (Pyrococcus furiosus, UniProt E7FHP1+Q8TZY7).
T1 construct: gene PF1838
Particulars: reverse reaction; 20 mM acid, 1 mM ATP or GTP, 0.5 mM CoA, 2 mM MgCl2, pH 7.0, 80°C.

The target of the next test is T2, ACS4-G (Pyrococcus furiosus, UniProt E7FHP1+Q8U1W9).
T2 construct: gene PF1085
T2 sequence (Q8U1W9 1-442): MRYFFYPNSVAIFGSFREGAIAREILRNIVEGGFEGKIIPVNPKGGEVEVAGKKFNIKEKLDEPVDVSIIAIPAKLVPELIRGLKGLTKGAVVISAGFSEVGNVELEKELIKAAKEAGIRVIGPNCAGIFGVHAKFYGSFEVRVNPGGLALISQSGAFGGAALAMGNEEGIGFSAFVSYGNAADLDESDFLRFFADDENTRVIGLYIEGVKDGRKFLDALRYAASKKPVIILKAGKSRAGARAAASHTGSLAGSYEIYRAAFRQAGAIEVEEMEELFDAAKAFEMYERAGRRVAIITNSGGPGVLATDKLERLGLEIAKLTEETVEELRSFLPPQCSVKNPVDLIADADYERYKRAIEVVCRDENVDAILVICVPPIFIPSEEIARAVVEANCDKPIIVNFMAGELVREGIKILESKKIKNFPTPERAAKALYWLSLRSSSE
T2 sequence (E7FHP1 whole entry): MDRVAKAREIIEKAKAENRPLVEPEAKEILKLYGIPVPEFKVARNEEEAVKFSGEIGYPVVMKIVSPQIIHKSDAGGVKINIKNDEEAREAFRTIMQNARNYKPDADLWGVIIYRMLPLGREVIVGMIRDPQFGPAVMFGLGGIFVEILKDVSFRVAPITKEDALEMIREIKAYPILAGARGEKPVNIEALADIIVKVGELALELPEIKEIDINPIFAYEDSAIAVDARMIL
Particulars: reverse reaction; 20 mM acid, 1 mM ATP or GTP, 0.5 mM CoA, 2 mM MgCl2, pH 7.0, 80°C.

T1 sequence (Q8TZY7 1-473): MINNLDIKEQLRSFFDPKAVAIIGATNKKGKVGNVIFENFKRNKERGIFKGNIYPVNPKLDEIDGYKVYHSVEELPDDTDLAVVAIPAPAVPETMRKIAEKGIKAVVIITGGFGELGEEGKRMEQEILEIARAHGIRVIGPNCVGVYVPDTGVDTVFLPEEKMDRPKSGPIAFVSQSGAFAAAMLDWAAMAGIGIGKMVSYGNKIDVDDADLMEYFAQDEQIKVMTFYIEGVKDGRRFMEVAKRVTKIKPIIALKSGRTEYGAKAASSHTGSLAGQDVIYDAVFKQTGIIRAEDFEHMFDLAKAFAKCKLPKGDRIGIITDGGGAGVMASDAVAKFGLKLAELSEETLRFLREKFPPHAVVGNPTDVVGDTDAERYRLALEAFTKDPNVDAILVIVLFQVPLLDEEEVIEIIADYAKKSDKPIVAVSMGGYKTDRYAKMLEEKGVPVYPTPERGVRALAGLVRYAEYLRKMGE
T1 sequence (E7FHP1 whole entry): as the sequence (E7FHP1 whole entry) above

With `C[C@H](O)C(=O)O` [lactate], the relative activity entry on ACS5-G is on record as “ACS5 is the only enzyme that has significant activity with lactate”.
As to `O=C(O)Cc1c[nH]cn1` [imidazole 4-acetate], the relative activity result on ACS4-G was “ACS4 was the only isoenzyme that shows significant activity with imidazole 4-acetate”.
